Reference: the NIST ThermoML archive (doi:10.1021/je060249h)
Values joined by “and” are separate entries in the source; they are usually repeats but may differ in a detail not shown here. Identical values can stand only once.

Settings: Liquid

ClCc1nc2ccccc2o1 [2-(chloromethyl)-1,3-benzoxazole]
Ebulliometric method (Recirculating still)
Settings | vapor or sublimation pressure
347.65 K | 0.08 kPa
357.1 K | 0.16 kPa
368.45 K | 0.32 kPa
375.15 K | 0.59 kPa
378.2 K | 0.69 kPa
383.2 K | 0.96 kPa
388.15 K | 1.39 kPa
393.5 K | 1.76 kPa
393.85 K | 1.87 kPa
395.6 K | 2.03 kPa
400.3 K | 2.72 kPa
405.25 K | 3.28 kPa
408.35 K | 4.19 kPa
411.9 K | 4.88 kPa
417.3 K | 6.32 kPa
418.1 K | 7.29 kPa
418.85 K | 7.91 kPa
418.9 K | 7.92 kPa
422.05 K | 9.41 kPa
423.2 K | 9.92 kPa and 10.59 kPa
424.2 K | 10.53 kPa
424.55 K | 10.8 kPa

Clc1ccccc1 [chlorobenzene]
Settings | vapor or sublimation pressure [kPa]
330.5 K | 7.92
337.4 K | 10.59
